Legend:
[1] = logP by HPLC on reversed-phase column (C 18), EEC Directive 79/831 Annex V.A8; format: physicochemical
Experimental: In table 1, the logP values were determined in accordance with EEC Directive 79/831 Annex V.A8 by HPLC (High Performance Liquid Chromatography) on a reversed-phase column (C 18), using the method described below: Temperature: 40° C.; […]

[2] = system: Alternaria solani; experiment: In vivo preventive test on Alternaria solani (tomato); settings: 500 ppm of active ingredient, evaluated 7 days after inoculation
From the text: One day after this treatment, the plants are inoculated with an aqueous spore suspension of Alternaria solani.

[3] = system: Pyrenophora teres; experiment: In vivo preventive test on Pyrenophora teres (barley); settings: 500 ppm of active ingredient, evaluated 7-9 days after inoculation
From the text: One day after this treatment, the plants are inoculated with an aqueous spore suspension of Pyrenophora teres.

[4] = system: aflatoxines production; experiment: microbe, parasite or virus in culture; format: cell-based, Aspergillus parasiticus; settings: 50 μM
[5] = system: Fusarium graminearum; experiment: microbe, parasite or virus in culture; format: cell-based; settings: 50 μM

| SMILES | logP [1] | Efficacy [2] [%] | Efficacy [3] [%] | % Inhibition of Aflatoxin at 50 μM [4] [%] | % Inhibition of fungal growth at 50 μM [5] [%] |
| --- | --- | --- | --- | --- | --- |
| CC(CNC(=O)c1c(C(F)F)nn(C)c1Cl)c1ccc(Cl)cc1Cl (stereo not shown) [Example 85] | 3.67 | 100 | 100 | 100 | 100 |
| Cn1nc(C(F)F)c(C(=O)NCCc2cc(Cl)cc(Cl)c2)c1F [Example 103] | 3.25 | 90 | 100 | 100 | 99 |
| CCN(C(=O)c1c(C(F)F)nn(C)c1F)C(C)C(=O)c1ccccc1 (stereo not shown) [Example 17] | 2.59 | 80 |  | 100 | 83 |
| CN(CCc1cc(Cl)ccc1Cl)C(=O)c1c(C(F)F)nn(C)c1F [Example 94] | 3.17 | 100 | 100 | 100 | 100 |
| Cc1ccsc1CCNC(=O)c1c(C(F)F)nn(C)c1Cl [Example 163] | 2.68 | 90 | 95 | 98 | 80 |
| Cn1nc(C(F)F)c(C(=O)NCC(c2cccs2)C(F)(F)F)c1Cl (stereo not shown) [Example 162] | 2.92 | 100 | 95 | 98 | 80 |
| Cn1nc(C(F)F)c(C(=O)NC[Si](C)(C)c2cc(Cl)cc(Cl)c2)c1F [Example 244] | 4.08 | 100 | 95 | 100 | 100 |
| CC(Cc1ccccc1F)N(C(=O)c1c(C(F)F)nn(C)c1Cl)C1CC1 (stereo not shown) [Example 20] | 3.52 | 95 | 100 | 86 | 69 |
| Cn1nc(C(F)F)c(C(=O)NCCc2ccccc2C(F)(F)F)c1F [Example 121] | 2.92 | 95 | 100 | 100 | 100 |
| Cn1nc(C(F)F)c(C(=O)NCCc2ccsc2Br)c1F [Example 166] | 2.64 |  |  | 100 | 97 |
| CC(CNC(=O)c1c(C(F)F)nn(C)c1F)c1cc(Cl)cc(Cl)c1 (stereo not shown) [Example 111] | 3.55 | 95 | 100 | 100 | 96 |
| CCC(CNC(=O)c1c(C(F)F)nn(C)c1F)c1ncc(C(F)(F)F)cc1Cl (stereo not shown) [Example 192] | 3.52 | 100 | 100 | 100 | 100 |
| CN(CCc1ccccc1)C(=O)c1c(C(F)F)nn(C)c1F [Example 4] | 2.43 | 100 | 95 | 100 | 91 |
| Cn1nc(C(F)F)c(C(=O)NCC(c2cccs2)C(F)(F)F)c1F (stereo not shown) [Example 161] | 2.75 | 95 | 100 | 100 | 85 |
| Cc1c(CCNC(=O)c2c(C(F)F)nn(C)c2Cl)sc2ccccc12 [Example 172] | 3.46 | 100 | 100 | 100 | 85 |
| COCCN(CCc1ccncc1)C(=O)c1c(C(F)F)nn(C)c1Cl [Example 202] | 1.69 |  |  | 99 | 81 |
| CC(CN(C)C(=O)c1c(C(F)F)nn(C)c1Cl)c1ccncc1 (stereo not shown) [Example 207] | 1.74 |  |  | 99 | 37 |

| SMILES | logP [1] | Efficacy [2] [%] | Efficacy [3] [%] | % Inhibition of Aflatoxin at 50 μM [4] [%] | % Inhibition of fungal growth at 50 μM [5] [%] |
| --- | --- | --- | --- | --- | --- |
| Cn1nc(C(F)F)c(C(=O)NC2CCCCC2c2ccccc2)c1F (stereo not shown) [Example 212] | 3.13 | 89 |  | 100 | 99 |
| Cn1nc(C(F)F)c(C(=O)NC(C)(C)Cc2cccc(Oc3ccccc3)c2)c1F [Example 142] | 4.09 | 90 | 78 |  |  |
| COc1ccc(CCN(C)C(=O)c2c(C(F)F)nn(C)c2F)cc1OC [Example 129] | 2.04 |  | 90 | 90 | 70 |
| CCN(CCc1ccc(Cl)cc1)C(=O)c1c(C(F)F)nn(C)c1Cl [Example 57] | 3.35 | 80 | 70 |  |  |
| CN(CCc1ccccc1)C(=O)c1c(C(F)F)nn(C)c1Cl [Example 9] | 2.60 | 95 | 95 |  |  |
| Cn1nc(C(F)F)c(C(=O)NCCc2csc3c2CCCC3)c1F [Example 170] | 3.31 |  |  | 100 | 95 |
| Cn1nc(C(F)F)c(C(=O)NCCc2ccccc2C(F)(F)F)c1Cl [Example 122] | 3.11 | 95 | 94 |  |  |
| Cn1nc(C(F)F)c(C(=O)NCC(C)(C)c2ccc(Cl)cc2)c1F [Example 63] | 3.37 | 90 | 94 |  |  |
| Cn1nc(C(F)F)c(C(=O)NCCc2cccc(Oc3ccccc3)c2)c1F [Example 143] | 3.37 | 95 | 89 |  |  |
| Cn1nc(C(F)F)c(C(=O)NCCc2ccc(Oc3ccccc3)cc2)c1Cl [Example 155] | 3.60 | 95 | 100 |  |  |
| CC(Cc1ccco1)NC(=O)c1c(C(F)F)nn(C)c1Cl (stereo not shown) [Example 174] | 2.37 |  |  | 89 | 76 |
| Cc1scc(CCNC(=O)c2c(C(F)F)nn(C)c2Cl)c1C [Example 168] | 3.02 |  |  | 100 | 97 |
| Cn1nc(C(F)F)c(C(=O)NCCc2ccccc2Oc2ccccc2)c1F [Example 140] | 3.48 | 100 | 95 |  |  |
| CN(CC(=O)c1ccc(Cl)cc1)C(=O)c1c(C(F)F)nn(C)c1F [Example 61] | 2.53 | 90 |  | 100 | 84 |
| C#CCOc1cc(C(OC)C(C)NC(=O)c2c(C(F)F)nn(C)c2Cl)ccc1OC (stereo not shown) [Example 159] | 2.76 |  |  | 98 | 77 |
| CC(Cc1ccco1)NC(=O)c1c(C(F)F)nn(C)c1F (stereo not shown) [Example 173] | 2.20 |  |  | 100 | 83 |
| Cn1nc(C(F)F)c(C(=O)NC2CC2c2ccc(F)cc2)c1F (stereo not shown) [Example 220] | 2.59 |  | 100 | 100 | 81 |

Reference: patent US9232799B2, “N-[(het)arylethyl)] pyrazole(thio)carboxamides and their heterosubstituted analogues” (BAYER INTELLECTUAL PROPERTY GMBH, priority 2010, dated 2016)
